Experimental findings from ChEMBL document CHEMBL1141788, “Dendridine A, a bis-indole alkaloid from a marine sponge Dictyodendrilla Species” (2005) are described below.

What is called MIC is the lowest concentration found to suppress growth. A low value points to a more susceptible organism.

Common to all, as to assay type: functional
One assay has as its system Bacillus subtilis. As to the kind of experiment: Antibacterial activity against Bacillus subtilis.
Another assay has as its system Cryptococcus neoformans. As to the kind of experiment: Antifungal activity against Cryptococcus neoformans.
In a further assay the test system is Micrococcus luteus. As to the kind of experiment: Antibacterial activity against Micrococcus luteus.

Values after ≈ are worked out from the molar mass of the structure shown.

For the compound `NCCc1c[nH]c2c(O)cc(Br)c(-c3c(Br)cc(O)c4[nH]cc(CCN)c34)c12` [DENDRIDINE A], the MIC against Bacillus subtilis stood at 8.3 µg/mL (≈ 16.3 µM); in the assay with Cryptococcus neoformans, 8.3 µg/mL (≈ 16.3 µM); against Micrococcus luteus, 4.2 µg/mL (≈ 8.26 µM).
